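Dose response: 5 concentrations. Exposure: 48 h. Format: 96-well plates. Endpoint: linear interpolation; highest concentration if not reached. GI50 is the concentration that inhibits growth by half. TGI is the concentration that stops growth completely.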
What was measured:
Test in all cases: NCI tumour cell line growth inhibition, 48 h
HOP-92 NSCLC = system: HOP-92 NSCLC
HCT-116 colon = system: HCT-116 colon
SNB-75 CNS = system: SNB-75 CNS
OVCAR-3 ovarian = system: OVCAR-3 ovarian
NCI-H522 lung = system: NCI-H522 lung
UACC-257 melanoma = system: UACC-257 melanoma
NCI-H460 lung = system: NCI-H460 lung
COLO 205 colon = system: COLO 205 colon
MDA-MB-435 = system: MDA-MB-435
RPMI-8226 leukemia = system: RPMI-8226 leukemia
K-562 leukemia = system: K-562 leukemia
SK-MEL-2 melanoma = system: SK-MEL-2 melanoma
SK-MEL-5 melanoma = system: SK-MEL-5 melanoma
IGROV1 ovarian = system: IGROV1 ovarian
HCC-2998 colon = system: HCC-2998 colon
SF-295 CNS = system: SF-295 CNS
MOLT-4 leukemia = system: MOLT-4 leukemia
SNB-19 CNS = system: SNB-19 CNS
SF-268 CNS = system: SF-268 CNS
SR leukemia = system: SR leukemia
U251 CNS = system: U251 CNS
UACC-62 melanoma = system: UACC-62 melanoma
LOX IMVI melanoma = system: LOX IMVI melanoma
UO-31 renal = system: UO-31 renal
PC-3 prostate = system: PC-3 prostate
OVCAR-5 ovarian = system: OVCAR-5 ovarian
NCI/ADR-RES ovarian = system: NCI/ADR-RES ovarian
SK-OV-3 ovarian = system: SK-OV-3 ovarian
A549 NSCLC = system: A549 NSCLC
MALME-3M melanoma = system: MALME-3M melanoma
HCT-15 colon = system: HCT-15 colon
OVCAR-8 ovarian = system: OVCAR-8 ovarian
BT-549 breast = system: BT-549 breast
SN12C renal = system: SN12C renal
M14 melanoma = system: M14 melanoma
A498 renal = system: A498 renal
OVCAR-4 ovarian = system: OVCAR-4 ovarian
SK-MEL-28 melanoma = system: SK-MEL-28 melanoma
HOP-62 NSCLC = system: HOP-62 NSCLC
RXF 393 renal = system: RXF 393 renal
SW-620 colon = system: SW-620 colon
HT29 colon = system: HT29 colon
TK-10 renal = system: TK-10 renal
NCI-H23 lung = system: NCI-H23 lung
NCI-H226 lung = system: NCI-H226 lung
DU-145 prostate = system: DU-145 prostate
ACHN renal = system: ACHN renal
SF-539 CNS = system: SF-539 CNS
CCRF-CEM leukemia = system: CCRF-CEM leukemia
MDA-MB-231 breast = system: MDA-MB-231 breast
HS 578T breast = system: HS 578T breast
KM12 colon = system: KM12 colon
HL-60(TB) leukemia = system: HL-60(TB) leukemia
EKVX NSCLC = system: EKVX NSCLC
MCF7 breast = system: MCF7 breast
T-47D breast = system: T-47D breast
786-0 renal = system: 786-0 renal

What does the source list for `COc1ccc(C2C(C#N)=C(N)Oc3c2sc2c(F)cccc32)cc1` (centres undefined)?
GI50 (HOP-92 NSCLC): 4.32 µM; TGI (HOP-92 NSCLC): 21.2 µM; GI50 (HCT-116 colon): 2700 nM; TGI (HCT-116 colon): 12.1 µM; GI50 (SNB-75 CNS): 2420 nM; TGI (SNB-75 CNS): 14.5 µM; GI50 (OVCAR-3 ovarian): 1380 nM; TGI (OVCAR-3 ovarian): 4.94 µM; GI50 (NCI-H522 lung): 799 nM; TGI (NCI-H522 lung): 6.35 µM; GI50 (UACC-257 melanoma): 14.6 µM; TGI (UACC-257 melanoma): 88.8 µM; GI50 (NCI-H460 lung): 2590 nM; TGI (NCI-H460 lung): 11.9 µM; GI50 (COLO 205 colon): 2620 nM; TGI (COLO 205 colon): 8.18 µM; GI50 (MDA-MB-435): 315 nM; TGI (MDA-MB-435): 1400 nM; GI50 (RPMI-8226 leukemia): 2660 nM; TGI (RPMI-8226 leukemia): 12.5 µM; GI50 (K-562 leukemia): 493 nM; TGI (K-562 leukemia): 18.2 µM; GI50 (SK-MEL-2 melanoma): 3 µM; TGI (SK-MEL-2 melanoma): 18.6 µM; GI50 (SK-MEL-5 melanoma): 3.93 µM; TGI (SK-MEL-5 melanoma): 16.3 µM; GI50 (IGROV1 ovarian): 2900 nM; TGI (IGROV1 ovarian): 19.5 µM; GI50 (HCC-2998 colon): 3.04 µM; TGI (HCC-2998 colon): 14 µM; GI50 (SF-295 CNS): 2100 nM; TGI (SF-295 CNS): 11.5 µM; GI50 (MOLT-4 leukemia): 2620 nM; TGI (MOLT-4 leukemia): 14 µM; GI50 (SNB-19 CNS): 2990 nM; TGI (SNB-19 CNS): 16.8 µM; GI50 (SF-268 CNS): 3.95 µM; TGI (SF-268 CNS): 19.6 µM; GI50 (SR leukemia): 706 nM; TGI (SR leukemia): 14.2 µM; GI50 (U251 CNS): 2740 nM; TGI (U251 CNS): 11.8 µM; GI50 (UACC-62 melanoma): 2410 nM; TGI (UACC-62 melanoma): 18.9 µM; GI50 (LOX IMVI melanoma): 2400 nM; TGI (LOX IMVI melanoma): 12.4 µM; GI50 (UO-31 renal): 4.66 µM; TGI (UO-31 renal): 17.7 µM; GI50 (PC-3 prostate): 2360 nM; TGI (PC-3 prostate): 11.7 µM; GI50 (OVCAR-5 ovarian): 8.53 µM; TGI (OVCAR-5 ovarian): 27.6 µM; GI50 (NCI/ADR-RES ovarian): 881 nM; TGI (NCI/ADR-RES ovarian): 5.96 µM; GI50 (SK-OV-3 ovarian): 4.35 µM; TGI (SK-OV-3 ovarian): 36.7 µM; GI50 (A549 NSCLC): 3.12 µM; TGI (A549 NSCLC): 22.3 µM; GI50 (MALME-3M melanoma): 11.6 µM; TGI (MALME-3M melanoma): 26.3 µM; GI50 (HCT-15 colon): 1730 nM; TGI (HCT-15 colon): 12.4 µM; GI50 (OVCAR-8 ovarian): 3.11 µM; TGI (OVCAR-8 ovarian): 14.5 µM; GI50 (BT-549 breast): 4.65 µM; TGI (BT-549 breast): 24 µM; GI50 (SN12C renal): 3.94 µM; TGI (SN12C renal): 16.5 µM; GI50 (M14 melanoma): 1340 nM; TGI (M14 melanoma): 4.54 µM; GI50 (A498 renal): 2100 nM; TGI (A498 renal): 15.6 µM; GI50 (OVCAR-4 ovarian): 8.95 µM; TGI (OVCAR-4 ovarian): 31 µM; GI50 (SK-MEL-28 melanoma): 8.25 µM; TGI (SK-MEL-28 melanoma): 23.2 µM; GI50 (HOP-62 NSCLC): 1750 nM; TGI (HOP-62 NSCLC): 15.9 µM; GI50 (RXF 393 renal): 1810 nM; TGI (RXF 393 renal): 5.77 µM; GI50 (SW-620 colon): 1820 nM; TGI (SW-620 colon): 15.6 µM; GI50 (HT29 colon): 3.23 µM; TGI (HT29 colon): 11.1 µM; GI50 (TK-10 renal): 5.69 µM; TGI (TK-10 renal): 23.5 µM; GI50 (NCI-H23 lung): 3.6 µM; TGI (NCI-H23 lung): 21.8 µM; GI50 (NCI-H226 lung): 14 µM; TGI (NCI-H226 lung): 32.6 µM; GI50 (DU-145 prostate): 2960 nM; TGI (DU-145 prostate): 11.4 µM; GI50 (ACHN renal): 6.08 µM; TGI (ACHN renal): 21.4 µM; GI50 (SF-539 CNS): 2130 nM; TGI (SF-539 CNS): 6.24 µM; GI50 (CCRF-CEM leukemia): 1700 nM; TGI (CCRF-CEM leukemia): 12.5 µM; GI50 (MDA-MB-231 breast): 3.77 µM; TGI (MDA-MB-231 breast): 20.3 µM; GI50 (HS 578T breast): 2810 nM; TGI (HS 578T breast): 27 µM; GI50 (KM12 colon): 1620 nM; TGI (KM12 colon): 17.5 µM; GI50 (HL-60(TB) leukemia): 1750 nM; TGI (HL-60(TB) leukemia): 6.5 µM; GI50 (EKVX NSCLC): 4.7 µM; TGI (EKVX NSCLC): 22.5 µM; GI50 (MCF7 breast): 711 nM; TGI (MCF7 breast): 13.6 µM; GI50 (T-47D breast): 2570 nM; TGI (T-47D breast): 25.9 µM; GI50 (786-0 renal): 3.34 µM; TGI (786-0 renal): 13 µM

Source: PubChem BioAssay (NCI)
